Data on 4 molecules can be found in BindingDB's records for doi:10.1021/jm0100537 (Glaxosmithkline, 2001).

SMILES strings stand for the structures. pIC50, pKi: −log10 of the molar value.

Assay in all cases: Caspase Inhibition Assay
Experiment [1] deals with T1, Caspase-3 (Homo sapiens, UniProt P42574).
T1 sequence (P42574 whole entry): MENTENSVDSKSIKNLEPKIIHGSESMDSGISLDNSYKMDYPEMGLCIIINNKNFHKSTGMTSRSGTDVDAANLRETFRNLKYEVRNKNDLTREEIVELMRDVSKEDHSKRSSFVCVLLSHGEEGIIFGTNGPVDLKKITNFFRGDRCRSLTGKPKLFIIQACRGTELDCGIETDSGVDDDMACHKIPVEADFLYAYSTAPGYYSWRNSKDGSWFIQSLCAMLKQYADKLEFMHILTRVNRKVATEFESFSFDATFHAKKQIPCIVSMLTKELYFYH

In experiment [2] the target is T2, Caspase-1 (Homo sapiens, UniProt P29466).
T2 sequence (P29466 whole entry): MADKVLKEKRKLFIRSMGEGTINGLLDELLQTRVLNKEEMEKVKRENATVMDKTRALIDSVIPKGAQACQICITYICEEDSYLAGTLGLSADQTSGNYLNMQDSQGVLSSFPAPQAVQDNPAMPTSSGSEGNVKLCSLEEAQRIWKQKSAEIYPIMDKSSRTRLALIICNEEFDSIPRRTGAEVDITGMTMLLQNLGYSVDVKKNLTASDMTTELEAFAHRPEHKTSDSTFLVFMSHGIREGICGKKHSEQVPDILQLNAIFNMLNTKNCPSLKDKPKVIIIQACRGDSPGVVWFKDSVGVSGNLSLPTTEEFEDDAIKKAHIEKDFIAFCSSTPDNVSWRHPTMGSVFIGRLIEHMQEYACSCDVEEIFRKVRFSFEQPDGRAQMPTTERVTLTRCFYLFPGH

Experiment [3] addresses T3, Caspase-6 (Homo sapiens, UniProt P55212).
T3 sequence (P55212 whole entry): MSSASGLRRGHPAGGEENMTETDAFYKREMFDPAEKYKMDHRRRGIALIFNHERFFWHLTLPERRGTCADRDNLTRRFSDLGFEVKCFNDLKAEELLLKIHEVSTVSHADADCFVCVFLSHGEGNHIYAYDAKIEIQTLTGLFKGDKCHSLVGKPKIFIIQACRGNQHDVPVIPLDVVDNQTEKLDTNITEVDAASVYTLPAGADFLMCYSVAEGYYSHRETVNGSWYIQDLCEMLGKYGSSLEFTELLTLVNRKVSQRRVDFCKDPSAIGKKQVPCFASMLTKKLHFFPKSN

For experiment [4], the target named is T4, Caspase-7 (Homo sapiens, UniProt P55210).
T4 sequence (P55210 whole entry): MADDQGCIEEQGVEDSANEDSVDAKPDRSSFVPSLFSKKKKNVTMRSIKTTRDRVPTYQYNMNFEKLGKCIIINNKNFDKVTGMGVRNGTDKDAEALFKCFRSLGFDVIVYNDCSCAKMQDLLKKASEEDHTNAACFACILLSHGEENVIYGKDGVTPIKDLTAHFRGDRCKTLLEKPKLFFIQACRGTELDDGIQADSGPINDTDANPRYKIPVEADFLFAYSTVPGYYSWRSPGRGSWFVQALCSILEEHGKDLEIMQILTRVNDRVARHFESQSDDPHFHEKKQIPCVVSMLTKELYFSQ

The target of experiment [5] is T5, Caspase-4 (Homo sapiens, UniProt P49662).
T5 sequence (P49662 whole entry): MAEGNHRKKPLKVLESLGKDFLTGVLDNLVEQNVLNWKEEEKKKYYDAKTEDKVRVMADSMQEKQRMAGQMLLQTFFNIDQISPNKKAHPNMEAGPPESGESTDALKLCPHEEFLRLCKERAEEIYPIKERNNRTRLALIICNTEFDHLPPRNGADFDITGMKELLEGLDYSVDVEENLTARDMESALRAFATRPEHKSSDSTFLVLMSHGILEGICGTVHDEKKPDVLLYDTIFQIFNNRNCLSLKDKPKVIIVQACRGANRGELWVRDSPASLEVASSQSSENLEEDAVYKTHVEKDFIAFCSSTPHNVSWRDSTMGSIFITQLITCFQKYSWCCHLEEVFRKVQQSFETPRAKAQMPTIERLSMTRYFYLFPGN

Experiment [6] concerns the target Caspase-8 (Homo sapiens, UniProt Q14790).
Experiment [7] concerns the target T6, Caspase-2 (Homo sapiens, UniProt P42575).
T6 sequence (P42575 whole entry): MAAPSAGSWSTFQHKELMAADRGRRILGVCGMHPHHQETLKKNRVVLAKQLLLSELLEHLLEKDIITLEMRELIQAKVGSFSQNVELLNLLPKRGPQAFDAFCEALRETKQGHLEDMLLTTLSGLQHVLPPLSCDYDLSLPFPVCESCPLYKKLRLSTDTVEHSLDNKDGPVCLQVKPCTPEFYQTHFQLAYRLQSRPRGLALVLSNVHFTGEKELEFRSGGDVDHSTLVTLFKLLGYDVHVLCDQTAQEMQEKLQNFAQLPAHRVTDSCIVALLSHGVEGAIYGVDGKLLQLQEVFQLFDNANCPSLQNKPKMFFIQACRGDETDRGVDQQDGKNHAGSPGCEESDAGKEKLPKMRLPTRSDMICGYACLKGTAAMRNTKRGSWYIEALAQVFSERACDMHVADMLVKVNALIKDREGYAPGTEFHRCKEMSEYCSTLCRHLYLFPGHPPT

For experiment [8], the target named is T7, Caspase-9 (Homo sapiens, UniProt P55211).
T7 sequence (P55211 whole entry): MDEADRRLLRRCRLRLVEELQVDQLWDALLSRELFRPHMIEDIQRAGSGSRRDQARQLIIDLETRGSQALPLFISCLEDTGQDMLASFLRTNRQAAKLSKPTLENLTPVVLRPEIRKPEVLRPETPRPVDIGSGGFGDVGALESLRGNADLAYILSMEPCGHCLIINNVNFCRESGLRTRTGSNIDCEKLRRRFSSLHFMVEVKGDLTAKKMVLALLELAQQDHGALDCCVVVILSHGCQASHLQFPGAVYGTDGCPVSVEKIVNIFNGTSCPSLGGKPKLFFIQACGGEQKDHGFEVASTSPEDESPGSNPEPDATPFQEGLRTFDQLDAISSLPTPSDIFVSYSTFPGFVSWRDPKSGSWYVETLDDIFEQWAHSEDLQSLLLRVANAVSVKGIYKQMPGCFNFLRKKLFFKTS

Sequence of Caspase-8 (Q14790 217-374 limits assumed): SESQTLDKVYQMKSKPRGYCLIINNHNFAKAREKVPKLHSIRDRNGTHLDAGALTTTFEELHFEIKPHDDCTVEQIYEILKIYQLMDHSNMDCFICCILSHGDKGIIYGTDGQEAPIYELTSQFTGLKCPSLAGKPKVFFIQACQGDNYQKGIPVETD
Sequence of Caspase-8 (Q14790 385-479 limits assumed): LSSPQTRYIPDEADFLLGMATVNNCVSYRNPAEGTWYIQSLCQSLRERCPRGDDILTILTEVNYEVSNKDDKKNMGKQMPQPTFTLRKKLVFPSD

Molecule `O=C1Nc2ccc([N+](=O)[O-])cc2C1=O` [5-nitro-2,3-dihydro-1H-indole-2,3-dione] had a negative logarithm of the IC50 (pIC50) in experiment [1] (pH 7.5, 30 °C) of 5.52.
In the case of `O=C1Nc2ccc(S(=O)(=O)N3CCC[C@@H]3CNc3ccccc3)cc2C1=O` [5-{[(2R)-2-[(phenylamino)methyl]pyrrolidine-1-]sulfonyl}-2,3-dihydro-1H-indole-2,3-dione], the pKi in experiment [2] was below 4.30; in experiment [3], 4.24; in experiment [4] it was 5.00; in experiment [5] it was below 4.30; in experiment [6] it was below 4.30; in experiment [7], 4.96. Further, the pKi is 4.92 in experiment [1] and below 4.30 in experiment [8]. In experiment [1], this molecule showed a pIC50 of 5.26.
In experiment [1], `O=C1Nc2ccc(S(=O)(=O)N3CCC[C@H]3C(=O)Nc3ccccc3)cc2C1=O` [(2S)-1-[(2,3-dioxo-2,3-dihydro-1H-indole-5-)sulfonyl]-N-phenylpyrrolidine-2-carboxamide] had a negative-log IC50 (pIC50) of 6.85.
On to `CN1C(=O)C(=O)c2cc(S(=O)(=O)N3CCC[C@H]3COc3ccccc3)ccc21` [(S)-1-Methyl-5-{1-[2-(phenoxymethyl)pyrrolidinyl]sulfonyl}isatin], for which the pIC50 in experiment [1] is 7.52.
